Assay results taken from patent US20020054941A1, “Methods and compositions to enhance tenderness and value of meat” (The Board of Regents of the University of Nebraska, priority 2000, published 2002).
Marks after values point to notes of the source that are not given here.

Legend:
[1] = test system: sternomandibularis beef muscles; assay: Shear force of pre-rigor injected sectioned muscle; conditions: 200 mM (glucose, calcium chloride 300 mM)
Experimental: Pre-rigor beef muscle was sectioned into 100 g. samples at approximately 3 hours post-mortem. The pieces were injected with 10 mL of treatment solution followed by marination in the solution for 24 hours at 2° C. before testing pH and recording visual color of the muscle sections. For evaluation of shear force, samples were thawed, cooked, sliced (approximately 6 mm by 6 mm) and then cooled before readings were taken. The solutions used for this procedure were as described above for homogenized muscle.
(§1) Pre-rigor beef muscle was sectioned and the sections were injected at approximately 1 hour post-mortem with a volume of treatment solution equal to 10% of the muscle weight. Objective color measurements were taken on pieces of each muscle section and the pieces were then frozen, powdered and stored at −80° C. for up to 10 days before testing pH and analyzing oxidation-reduction potential. Shear force was evaluated as described immediately above. Solutions used in this procedure were as follows: sodium citrate (200 mM), sodium acetate (200 mM), glucose (300 mM), calcium citrate (200 mM), calcium chloride (300 mM), injection with water, and no injection (control). The calcium citrate solution was prepared as a suspension using 0.25% carrageenan and 200 mM calcium citrate due to its insolubility in water. However, use of calcium citrate can be optimized by increasing solubility by means known in the art.

[2] = test system: semimembranosus beef muscles; assay: Warner-Bratzler shear force, pre-rigor injection of whole muscle; conditions: 200 mM, calcium chloride 300 mM; for Shear force, 3 d: 3 d postmortem; for Shear force, 7 d: 7 d postmortem; for Shear force, 14 d: 14 d postmortem
Experimental: (§2) Experiment were conducted to test the effects of pre-rigor injection of several compounds. Effects of these compounds on pH, color, tenderness and other related traits of low-value beef cuts were investigated. Ten steers (22 to 24 mo of age, 515 to 676 kg live weight) were slaughtered according to current industry procedures. Pre-rigor semimembranosus (from the round), triceps brachii and supraspinatus muscles (from the chuck) were excised, after evisceration (approximately 1 hour post-mortem), from both sides of the carcass. Muscle sections were randomly assigned to the treatments: sodium citrate (NaC; 200 mM), sodium fluoride (NaF; 200 mM), sodium acetate (NaA; 200 mM), and calcium chloride (CaCl2; 300 mM). The control samples remained on the carcass at 2° C. for 24 hours to simulate commercial conditions. Following a cooling, control muscles were removed from each carcass (4 replicates), vacuum packaged and transferred to the holding cooler with the other cuts at 2° C. Calcium chloride treatment was included to be compared with the other treatments.
(§3) At 2 hours post-mortem, each muscle was injected with a volume equal to 8% of the muscle weight using a four-needle hand injector. The temperature of solutions were 4° C. Each muscle was individually treated (2% of solution was added to give a total of 10% of muscle weight) and tumbled in a 75-pound capacity tumbler (Röschermatic, Oshabrück, Germany) for 30 min to insure uniform distribution of the solution.
(§4) Tenderness of samples was evaluated by measuring Warner-Bratzler shear force. Steaks (2.54-cm thick) from the middle of each muscle were cut and frozen at 3, 7 and 14 days postmortem. Frozen steaks (2.54 cm thick) were thawed at 4° C. for 24 hours and cooked on Farberware Open Hearth Broilers (Model 350A Walter Kidde, Bronx, N.Y.) to an internal temperature of 40° C., turned, and cooked to a final internal temperature of 70° C. (AMSA, 1995). Temperature was monitored using an OMEGA thermocouple thermometer type T (Omega Engineering, Inc., Stamford, Conn.) inserted into the geometric center of a steak. The cooked steaks were chilled 2 hours at 2° C., and then 8 cores (1.27-cm diameter) were removed parallel to the muscle fiber orientation. Cores were sheared once each on an Instron Universal Testing Machine model 55R1123 (Instron, Canton, Mass.) with a Warner-Braztler attachment. The Instron was set up with a 500 kg load cell, full scale load=1 (0-10 kg), and crosshead speed=250 mm/mim.

[3] = test system: triceps brachii beef muscles; assay: as above; conditions: 200 mM, calcium chloride 300 mM; for Shear force, 3 d: 3 d postmortem; for Shear force, 7 d: 7 d postmortem; for Shear force, 14 d: 14 d postmortem
Experimental: as §2, §3, §4

[4] = test system: supraspinatus beef muscles; assay: as above; conditions: 200 mM; for Shear force, 3 d: 3 d postmortem; for Shear force, 3 d / Shear force, 7 d: calcium chloride 300 mM; for Shear force, 7 d: 7 d postmortem; for reduced shear force compared with controls: supraspinatus, 3 days post-mortem, CaCl2 300 mM
Experimental: as §2, §3, §4

[5] = test system: semimembranosus beef muscles; assay: Muscle pH, pre-rigor injection of whole muscle; conditions: for pH, 0 h: 0 h (before injection); for pH, 24 h / pH, 72 h: 200 mM, calcium chloride 300 mM
Experimental: as §2, §3
(§5) Samples of each muscle (approximately 100 g) were taken at 0 hour (before injection), 24, and 72 hours after injection for determination of pH, oxidation-reduction potential, glycogen content, R-values, NAD, and NADH. The samples were then immediately frozen in liquid nitrogen and stored at −80° C. until they were powdered and analyzed. Fresh muscle samples (approximately 20 g) were taken at 72 hours after injection and assayed immediately for water holding capacity and sarcomere length.
(§6) Duplicate pre-rigor samples (5 g) were weighed from powdered sample and homogenized (Polytron, Brinkman Instruments, New York, N.Y.) in 50 mL of 5 mM iodoacetic acid, 150 mM potassium chloride (pH 7.0, 24° C.) to stop glycolysis (Ahn et al., 1992). The pH of the suspension was measured with a general purpose electrode (Corning Glass Works, Corning, N.Y.) attached to an Orion Model SA 720 pH meter (Orion Research, Inc., Boston, Mass.). Post-rigor muscle pH was determined by homogenizing 5 g of sample in 50 mL of deionized water (Winger et al., 1979).

[6] = test system: triceps brachii beef muscles; assay: Muscle pH, pre-rigor injection of whole muscle; conditions: 200 mM, calcium chloride 300 mM; for pH, 0 h: 0 h (before injection); for pH, 24 h: 24 h after injection; for pH, 72 h: 72 h after injection
Experimental: as §2, §3, §5, §6

[7] = test system: supraspinatus beef muscles; assay: Muscle pH, pre-rigor injection of whole muscle; conditions: for pH, 0 h: 0 h (before injection); for pH, 24 h / pH, 72 h: 200 mM, calcium chloride 300 mM
Experimental: as §2, §3, §5, §6

[8] = test system: semimembranosus beef muscles; assay: Glycogen content, pre-rigor injection of whole muscle; conditions: for Glycogen, 0 h: 0 h (before injection); for Glycogen, 24 h / Glycogen, 72 h: 200 mM, calcium chloride 300 mM
Experimental: as §2, §3, §5
(§7) Glycogen extraction was performed in duplicate with 3 g of frozen-powdered muscle sample, which was homogenized with 0.6 N perchloric acid. Amylo-α-1,4-α-1,6- glucosidase from Aspergillus niger (No. A3514. Sigma Chemical, St. Louis, Mo.) was used for the breakdown of the glycogen molecules to free glucose following the method described by Roehrig and Allred (1974). Homogenate was incubated for 2 hours at 37° C., then 100 μL of 3 N perchloric acid was added to precipitate the proteins. After centrifugation, the supernatant was stored at 0-4° C., until analyzed, which was within 2 weeks.
(§8) The assay for glucose was run as described by Dalrymple and Hamm (1973) and Roehrig and Allred (1974), using glucose-6-phosphate dehydrogenase (No. G8878. Sigma Chemical, St. Louis, Mo.) and hexokinase (No. H5500. Sigma Chemical, St. Louis, Mo.). Briefly, the method involves an exoglucosidase, Amylogucosidase, from Aspergillus niger which hydrolyses the -α-D-(1-4) and -α-D-(1-6)-linkages of glycogen. The glucose formed is specifically determined with hexokinase and glucose-6-phosphate dehydrogenase. The glucose liberated after hydrolysis of glycogen is proportional to the increase of absorbance measured at 340 nm. Fifty μL of sample was incubated with 1 mL ATP, NADP, Glucose-6-phosphate dehydrogenase buffer and 5 μL hexokinase at 37° C. for 15 min. Absorbance was measured at 340 nm wavelength, light path=1 cm. The muscle glycogen content was calculated with the following formula: Glycogen (μmol glucose/g wet muscle weight)=111.882×absorbance. 111.882 is the dilution factor.

[9] = test system: triceps brachii beef muscles; assay: as above; conditions: 200 mM, calcium chloride 300 mM; for Glycogen, 0 h: 0 h (before injection)
Experimental: as §2, §3, §5, §7, §8

[10] = test system: supraspinatus beef muscles; assay: as above; conditions: for Glycogen, 0 h: 0 h (before injection); for Glycogen, 24 h / Glycogen, 72 h: 200 mM, calcium chloride 300 mM
Experimental: as §2, §3, §5, §7, §8

[11] = test system: sternomandibularis beef muscles; assay: pH of pre-rigor injected sectioned muscle; conditions: injection 10% of muscle weight, 200 mM (glucose, calcium chloride 300 mM)
Experimental: as §1

Compound	Shear force, kg (72 h) [1]	Shear force, 3 d [2]	Shear force, 7 d [2]	Shear force, 14 d [2]	Shear force, 3 d [3]	Shear force, 7 d [3]	Shear force, 14 d [3]	Shear force, 3 d [4]	Shear force, 7 d [4]	reduced shear force compared with controls [4]	pH, 0 h [5]	pH, 24 h [5]	pH, 72 h [5]	pH, 0 h [6]	pH, 24 h [6]	pH, 72 h [6]	pH, 0 h [7]	pH, 24 h [7]	pH, 72 h [7]	Glycogen, 0 h [8]	also measured
[Ca+2].[Cl-].[Cl-] [Calcium chloride, calcium chloride, reference compound]	6.61^a kg	6.28 kg	5.36 kg	4.03 kg	4.95^bc kg	4.87^b kg	4.07 kg	5.55^c kg	4.84^b kg	1.73 kg	6.76	5.77^b	5.60^c	6.77	5.84^b	5.67^b	6.75	5.88^c	5.54^c	58.18 μmol/g muscle	Glycogen, 24 h [8]: 45.90^ab μmol/g muscle; Glycogen, 72 h [8]: 37.10^ab μmol/g muscle; Glycogen, 0 h [9]: 39.14 μmol/g muscle; Glycogen, 24 h [9]: 28.76^b μmol/g muscle; Glycogen, 72 h [9]: 25.01^bc μmol/g muscle; Glycogen, 0 h [10]: 37.98 μmol/g muscle; Glycogen, 24 h [10]: 26.75 μmol/g muscle; Glycogen, 72 h [10]: 19.31^b μmol/g muscle; PH (0 h) [11]: 6.77; pH, 72 h [11]: 5.88^d
O=C([O-])CC(O)(CC(=O)[O-])C(=O)[O-].O=C([O-])CC(O)(CC(=O)[O-])C(=O)[O-].[Ca+2].[Ca+2].[Ca+2] [Calcium citrate, calcium citrate]	7.57^a kg																				PH (0 h) [11]: 6.92; pH, 72 h [11]: 5.82^cd
[F-].[Na+] [Sodium fluoride, sodium fluoride, reference compound]		6.02 kg	5.56 kg	4.60 kg	5.18^bc kg	4.82^b kg	4.09 kg	6.13^bc kg	4.80^b kg	1.15 kg	6.70	6.08^a	5.97^a	6.76	6.07^a	5.95^a	6.72	6.23^a	6.09^a	62.90 μmol/g muscle	Glycogen, 24 h [8]: 54.03^b μmol/g muscle; Glycogen, 72 h [8]: 43.77^a μmol/g muscle; Glycogen, 0 h [9]: 48.22 μmol/g muscle; Glycogen, 24 h [9]: 43.98^a μmol/g muscle; Glycogen, 72 h [9]: 37.30^a μmol/g muscle; Glycogen, 0 h [10]: 45.49 μmol/g muscle; Glycogen, 24 h [10]: 37.37 μmol/g muscle; Glycogen, 72 h [10]: 30.46^a μmol/g muscle
